Measurements reported in patent US8906393B2, “Biofilm inhibiting composition” (Rutgers, The State University of New Jersey, priority 2011, dated 2014).

What was measured:
K. kingae = experiment: Biofilm inhibition assay (96-well microtiter plate); assay type: cell-based, Kingella kingae; settings: K. kingae PYKK181; crystal violet
Description: (§1) Biofilm inhibition assay. Biofilms were cultured in 96-well polystyrene microtiter plates as previously described. Briefly, cells were diluted to 104 to […] CFU/ml in TSB supplemented with 0.1 vol of PAM extract, or 0.1 vol of water as a control. Aliquots of cells (200 μl each) were transferred to the wells of a microtiter plate, and the plate was incubated at 37° C. for 18 h. Biofilms were washed with water and stained for 1 min with 200 μl of Gram's crystal violet. Stained biofilms were rinsed with water and dried. The amount of crystal violet binding was quantitated by destaining the biofilms for 10 min with 200 μl of 33% acetic acid, and then measuring the absorbance of the crystal violet solution at 595 nm. All assays were performed 3-5 times with similarly significant decreases in absorbance values.

K. pneumoniae = experiment: as above; assay type: cell-based, Klebsiella pneumoniae; settings: K. pneumoniae 1840; crystal violet
Description: as §1

S. aureus strain SH1000 = experiment: Biofilm inhibition assay (96-well microtiter plate crystal violet binding); assay type: cell-based, Staphylococcus aureus
Description: as §1
Expressing the K. kingae pam genes in E. coli. Plasmids pGEM-T, pMB10, pMB5 and pMB9 were transformed into E. coli strain JM109. Transformants were selected on agar supplemented with 50 μg/ml ampicillin. Lawns of transformants were grown on agar plates supplemented with 50 μg/ml ampicillin and 1 mM IPTG. Lawns were harvested and cell-free extracts were prepared by ultracentrifugation as described above. Extracts were sterilized by passage through a 0.22-μm filter, incubated at 100° C. for 15 min, and then tested for activity in the biofilm inhibition assay described above.

Measured: biofilm-inhibiting activity of purified PAM galactan

→3)-β-D-Galf-(1→6)-β-D-Galf-(1→ [PAM galactan]
exhibited biofilm-inhibiting activity: K. kingae | K. pneumoniae | S. aureus strain SH1000
